Columns and labels:
[1] = system: estrogen biosynthesis; settings: Endocrinology 92, 866 (1973); Endocrinology 100, 1684 (1977); cited from earlier work
[2] = Release of compound from skin implant in rat studies; assay type: in vivo
[3] = Polarity by thin layer chromatography; assay type: physicochemical; settings: compared with 4-acetate-4-A
[4] = system: mating in rats; assay: In vivo effect on mating in rats (silastic wafer implant); set-up: species or system rat; settings: 8 female rats
Procedure: Female rats showing at least 2 consecutive 4-day cycles were used. On the day of diestrus I, a silastic wafer, was inserted under the dorsal skin of each rat. The wafer, about 25 mm in diameter and 1 mm thick, was prepared by polymerizing 0.5 g of Corning medical grade Silastic 382 with 75 mg 4-acetate-4-A, using stannous octoate catalyst. Each female was housed with 2 fertile males until mating occurred. Control animals were treated with same except that 4-acetate-4-A was omitted from the wafer.

[5] = system: estrogen biosynthesis; assay: In vivo inhibition of estrogen biosynthesis; set-up: species or system rat
[6] = system: Estrogen-dependent mammary tumors; assay: In vivo effect on DMBA-induced estrogen-dependent mammary tumors in rats; set-up: species or system rat; settings: after 4 weeks, wafer with 150 mg plus sc 2.5 mg/100 g twice daily
Procedure: Estrogen-dependent mammary tumors where induced in rats with DMBA. Prior to treatment the 7 sample group rats had 23 tumors; the 6 control group rats had 17 tumors. During the initial treatment period the number of tumors increased to 28 for the sample group, 24 for the control group.
The sample group was treated with implanted wafers containing 0.5 g silastic and 150 mg 4-acetate-4-A. The sample group was also treated twice daily for 4 weeks with sc injections of 4-acetate-4-A (2.5 mg/100 g animal) in a suspending vehicle. The control was treated the same except that 4-acetate-4-A was omitted from the wafers and the injection.

[7] = system: implantation in mated rats; assay: In vivo effect on implantation in mated rats; set-up: species or system rat; settings: 7 mated rats; 100 mg/kg daily by injection from Day 2 of pregnancy
Procedure: Injections of 4-acetate-4-A in a suspending vehicle were begun at 0800 hr on Day 2 of pregnancy, and repeated thereafter at […], and at 2400 hr as 2/6 daily dose. The daily does was 100 mg of 4-acetate-4-A per kg of body weight. Control animals were treated the same except that only the suspending vehicle was injected.

[8] = system: estrogen biosynthesis; assay: In vitro inhibition of estrogen biosynthesis; assay type: biochemical

SMILES: C[C@]12CCC(=O)C=C1C(=O)C[C@@H]1[C@@H]2CC[C@]2(C)C(=O)CC[C@@H]12 (stereo in doubt) [4-androstene-3,6,17-trione]
- inhibition of estrogen biosynthesis (literature) [1]: effective inhibitors of estrogen biosynthesis

SMILES: C[C@]12C=CC(=O)C=C1C=C[C@@H]1[C@@H]2CC[C@]2(C)C(=O)CC[C@@H]12 [1,4,6-androstatriene-3,17-dione]
- inhibition of estrogen biosynthesis (literature) [1]: effective inhibitors of estrogen biosynthesis

SMILES: C[C@]12CCC(=O)C(O)=C1CC[C@@H]1[C@@H]2CC[C@]2(C)C(=O)CC[C@@H]12 [4-OH-4-A, 4-hydroxy-4-androstene-3,17-dione]
- diffusion / release from skin implant [2]: does not diffuse as well from the implant
- inhibition of estrogen biosynthesis (literature) [1]: effective inhibitor of estrogen biosynthesis
- polarity (thin layer chromatography) [3]: less polar than 4-acetate-4-A

SMILES: CC(=O)OC1=C2CCC3C4CCC(=O)C4(C)CCC3C2(C)CCC1=O (stereo not shown) [4-acetate-4-A]
- Number of animals mating on a given day: 1st ([4]; 1st day, silastic wafer with 75 mg 4-acetate-4-A under dorsal skin): 0
- Number of animals mating on a given day: 6th ([4]; 6th day, silastic wafer with 75 mg): 2
- Number of animals mating on a given day: 7th ([4]; 7th day, silastic wafer with 75 mg): 2
- Number of animals mating on a given day: 15th day ([4]; 15th day, silastic wafer with 75 mg): 3
- Number of animals mating on a given day: 2d ([4]; 2d day, silastic wafer with 75 mg): 1
- ovarian estrogen secretion ([5]; in vivo rat studies): lower ovarian estrogen secretion
- tumors completely regressed [6]: 64%
- tumors regressed to less than 1/2 their pretreatment size ([6]; in addition to those completely regressed): 32%
- diffusion / release from skin implant [2]: continuous, uniform release
- Animals without implants [7]: 4
- Average number of normal-sized implants/animal [7]: 1.7
- Average number of small (<2.4 mm) implants/animal [7]: 1.4
- Number of animals affected by treatment [7]: 7

SMILES: C[C@]12CC[C@H]3[C@@H](CCC4=CC(=O)CC[C@@H]43)[C@@H]1CCC2=O [4-estrene-3,17-dione]
- inhibition of estrogen biosynthesis (literature) [1]: effective inhibitors of estrogen biosynthesis

SMILES: CC12CCC3C(CCC4=C(OC(=O)CCC(=O)O)C(=O)CCC43C)C1CCC2=O (stereo not shown) [4-hemisuccinate-4-A]
- ability to inhibit estrogen biosynthesis (in vivo) ([5]; in vivo): marked ability to inhibit estrogen biosynthesis
- ability to inhibit estrogen biosynthesis (in vitro) [8]: marked ability to inhibit estrogen biosynthesis

SMILES: CCCCCCC(=O)OC1=C2CCC3C4CCC(=O)C4(C)CCC3C2(C)CCC1=O (stereo not shown) [4-heptanoate-4-A]
- ability to inhibit estrogen biosynthesis (in vitro) [8]: This expectation has been borne out
